Test results reported in ChEMBL document CHEMBL1201862, “PubChem BioAssay data set” (2004).
Activity calls are given as the source filed them.

Tests used:
[1] = CCR5-tropic HIV-1 fusion blockers – cell-based, CCR5-tropic Env, dose response (AID 2279); format: functional
[2] = biological target: DNA (cytosine-5)-methyltransferase 1 (Homo sapiens, UniProt P26358); experiment: inhibition of DNA methylation by DNMT1 – biochemical, fluorescent molecular beacon, confirmation (AID 602386); format: functional
[3] = biological target: Heat shock protein HSP 90-alpha (Homo sapiens, UniProt P07900); format: functional, organism-based
Streptokinase A = biological target: T1, Streptokinase A (Streptococcus pyogenes serotype M1, UniProt P10520); experiment: viability-normalized secreted streptokinase activity reduction – plasminogen activation absorbance, OD405, dose response (AID 1914); format: functional, Streptococcus pyogenes M1 GAS;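 note: secreted streptokinase activity via plasminogen activation per viability signal from cell pellet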
T1 sequence (P10520 whole entry): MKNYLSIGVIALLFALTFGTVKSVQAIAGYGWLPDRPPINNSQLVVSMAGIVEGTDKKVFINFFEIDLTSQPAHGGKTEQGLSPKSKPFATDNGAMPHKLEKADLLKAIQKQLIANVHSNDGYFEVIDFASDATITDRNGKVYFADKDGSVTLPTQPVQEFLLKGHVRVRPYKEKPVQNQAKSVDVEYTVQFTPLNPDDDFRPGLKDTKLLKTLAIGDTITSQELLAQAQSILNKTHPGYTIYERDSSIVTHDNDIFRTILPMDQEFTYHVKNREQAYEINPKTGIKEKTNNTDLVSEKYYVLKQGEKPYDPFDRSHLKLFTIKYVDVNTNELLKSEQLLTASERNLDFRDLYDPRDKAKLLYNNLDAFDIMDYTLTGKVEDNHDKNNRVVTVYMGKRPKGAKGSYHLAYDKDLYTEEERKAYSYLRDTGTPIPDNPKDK

[4] = biological target: T2, RNA-binding protein pos-1 (Caenorhabditis elegans, UniProt G5EF15); experiment: disruptors of C. elegans POS-1 RNA interaction – biochemical, fluorescence polarization, dose response (AID 1964);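 note: purified POS-1 fused to maltose binding protein made in E. coli; potency of compounds blocking POS-1 binding to fluorescent RNA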
T2 sequence (G5EF15 whole entry): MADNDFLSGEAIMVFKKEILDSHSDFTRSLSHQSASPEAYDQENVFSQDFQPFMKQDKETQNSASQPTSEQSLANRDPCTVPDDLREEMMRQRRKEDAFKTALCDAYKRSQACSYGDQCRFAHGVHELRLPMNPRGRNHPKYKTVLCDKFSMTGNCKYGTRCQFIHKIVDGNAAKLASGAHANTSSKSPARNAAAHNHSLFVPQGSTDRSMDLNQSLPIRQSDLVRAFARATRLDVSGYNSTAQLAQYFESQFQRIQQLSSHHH

Vero [5] = experiment: viability of Vero cells under compound – cytotoxicity control for flavivirus capping enzyme inhibitors (AID 588742); format: functional; settings: Chlorocebus sabaeus
Streptococcus = experiment: GAS UMAA2166 growth inhibition – luminescence, BacTiterGlo, counter-screen for streptokinase expression inhibitor project, dose response (AID 1915); format: functional, organism-based;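 note: potency for reduction of bacterial viability or growth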
[6] = biological target: T3, Zinc finger protein mex-5 (Caenorhabditis elegans, UniProt Q9XUB2); experiment: potency of MEX-5 RNA-binding blockers – biochemical, C. elegans, fluorescence polarization, dose response (AID 1960)
T3 sequence (Q9XUB2 whole entry): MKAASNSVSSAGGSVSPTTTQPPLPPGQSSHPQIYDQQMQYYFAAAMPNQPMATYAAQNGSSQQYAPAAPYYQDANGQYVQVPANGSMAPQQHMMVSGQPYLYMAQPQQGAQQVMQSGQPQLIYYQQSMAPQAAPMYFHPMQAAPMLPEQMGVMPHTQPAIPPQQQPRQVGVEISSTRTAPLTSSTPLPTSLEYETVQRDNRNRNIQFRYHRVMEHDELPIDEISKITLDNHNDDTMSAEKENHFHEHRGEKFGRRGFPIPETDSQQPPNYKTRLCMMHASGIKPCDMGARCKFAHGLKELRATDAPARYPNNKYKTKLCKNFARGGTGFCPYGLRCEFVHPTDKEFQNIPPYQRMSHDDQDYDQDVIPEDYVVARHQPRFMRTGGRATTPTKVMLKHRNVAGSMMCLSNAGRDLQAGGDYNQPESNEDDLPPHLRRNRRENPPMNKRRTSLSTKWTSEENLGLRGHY

Genome polyprotein = Genome polyprotein (dengue virus type 2, UniProt P29990); experiment: flavivirus cap methylation enzyme inhibition – biochemical, confirmation dose response, primary screen (AID 588689); format: functional
Vero [7] = experiment: cells; format: functional; settings: Chlorocebus sabaeus
[8] = tested on: Streptococcus sp. 'group A'; experiment: Streptococcus pyogenes SK(-)GAS viability under kanamycin – luminescence, BacTiterGlo, confirmation, counter-screen for streptokinase expression inhibitor project, dose response (AID 1900); format: functional, organism-based
Vero [9] = experiment: cells; format: functional, cell-based; settings: Chlorocebus sabaeus
Cytochrome P450 2D6 = Cytochrome P450 2D6 (Homo sapiens, UniProt P10635); experiment: qHTS Assay for Inhibitors and Substrates of Cytochrome P450 2D6. [Related pubchem assays: 410 ]; format: ADME; settings: read-out: Potency
[10] = biological target: Lysosomal acid glucosylceramidase (Homo sapiens, UniProt P04062); experiment: Dose response cell-based high throughput screening assay to identify enhancers of beta-glucosidase activity. [Related pubchem assays: 784 ]; format: functional
[11] = biological target: Melanin-concentrating hormone receptor 1 (Homo sapiens, UniProt Q99705); experiment: Late-stage fluorescence-based counterscreen for antagonists of the G-protein coupled receptor 7 (GPR7): cell-based dose response assay to identify antagonists of the melanin-concentrating hormone receptor 1 (MCHR1). [Related pubchem assays (depositor defined):AID1861, AID1880, AID1952, AID2148, AID2251, AID2257, AID485339]; format: functional;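 note: stimulated with 30 nM MCH peptide agonist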
[12] = biological target: T4, Delta-type opioid receptor (Homo sapiens, UniProt P41143); experiment: delta opioid receptor blockers – image-based, SAR follow-up (AID 2357); format: functional
Mu-type opioid receptor [13] = biological target: T5, Mu-type opioid receptor (Homo sapiens, UniProt P35372); experiment: mu opioid receptor blockers – image-based, SAR follow-up (AID 2420); format: functional;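 note: compounds added before stimulation of receptor with agonist DAMGO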
[14] = biological target: T6, Kappa-type opioid receptor (Homo sapiens, UniProt P41145); experiment: SAR analysis of small molecule agonists of the kappa opioid receptor via a luminescent beta-arrestin assay. [Related pubchem assays (depositor defined):AID1777, AID1786, AID1966, AID2133, AID2136, AID2348, AID2352, AID2357, AID2359, AID2370, AID2420, AID2478, AID2491, AID2492, AID2493, AID2497, AID2498, AID2500, AID449737, AID488822, AID488842]; format: functional
[15] = biological target: T6, Kappa-type opioid receptor; experiment: kappa opioid receptor blockers, image-based, SAR follow-up (AID 2348); format: functional
Mu-type opioid receptor [16] = biological target: T5, Mu-type opioid receptor; experiment: mu opioid receptor activators, image-based, SAR follow-up (AID 2352); format: functional
[17] = biological target: T6, Kappa-type opioid receptor; experiment: kappa opioid receptor activation potency – imaging, image-based, SAR follow-up (AID 2359); format: functional
[18] = biological target: T4, Delta-type opioid receptor; experiment: DOR agonists, SAR follow-up, image-based (AID 2370); format: functional
HEK293 = experiment: Fluorescence-based counterscreen for potentiators or agonists of NPY-Y2: cell-based high-throughput dose response assay to identify inhibitors of cyclic nucleotide gated ion channel (CNGC) activity. In this assay, the parental HEK293 cell line transfected with a cyclic-nucleotide gated ion channel (CNGC)-based cAMP sensor is used to measure inhibition of isoproterenol-induced CNGC activity by test compound.; format: functional; settings: Homo sapiens;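 note: stimulus is 1 µM isoproterenol at EC100 plus PDE inhibitor Ro 20-1724 at 25 µM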
[19] = biological target: Neuropeptide Y receptor type 1 (Homo sapiens, UniProt P25929); experiment: Fluorescence-based counterscreen for agonists of NPY-Y2: cell-based high-throughput dose response assay for agonists of NPY-Y1.; format: functional
[20] = biological target: Neuropeptide Y receptor type 2 (Homo sapiens, UniProt P49146); experiment: Fluorescence-based cell-based high-throughput dose response assay for agonists of NPY-Y2. [Related pubchem assays: 1703 (Screening assay (CNGC inhibitors).), 1359 (Screening assay (NPY-Y2 potentiators or agonists).), 1304 (Screening assay (NPY-Y1 potentiators or agonists).), 1710 (Screening assay (NPY-Y2 agonists).), 1791 (Summary AID.)]; format: functional
Chaperone protein dnaK = Chaperone protein dnaK (Escherichia coli, UniProt C3TRK2); experiment: E. coli DnaK binders, calorimetric Kd – biophysical, isothermal titration calorimetry, beta-domain, full-length DnaK, orthogonal assay for DnaK modulator project, SAR follow-up (AID 1495)
[21] = biological target: T7, Ubiquitin-conjugating enzyme E2 N (Homo sapiens, UniProt P61088); format: functional;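 note: Dose-response confirmation in a TR-FRET assay detecting UBC13-driven polyubiquitin chain formation, inhibition measured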
T7 sequence (P61088 whole entry): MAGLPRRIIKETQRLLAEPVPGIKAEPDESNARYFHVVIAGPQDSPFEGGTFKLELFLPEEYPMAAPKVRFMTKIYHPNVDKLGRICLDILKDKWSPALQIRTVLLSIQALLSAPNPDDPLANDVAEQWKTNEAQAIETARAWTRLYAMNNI

[22] = luciferase reporter signal suppression in cells – H4 neuroglioma cells, luminescence, dose response (AID 1990); format: functional, cell-based
[23] = Luminescence Cell-Based Dose Response HTS to Identify Inhibitors of 5'UTR Stem-Loop Driven Prion Protein mRNA Translation in H4 Neuroglioblastoma Cells. [Related pubchem assays: 1827 (Project Summary), 1813 (Primary HTS)]; format: functional
[24] = biological target: Cyclin-dependent kinase 5/CDK5 activator 1 (Homo sapiens, UniProt Q00535); experiment: blockade of human CDK5 activity – biochemical, cherry-picked samples, set 2, dose response (AID 504545)
[25] = alpha-synuclein stem-loop luciferase translation blockers – H4 neuroglioma cells, luminescence, confirmation (AID 1988); format: functional, cell-based
Staphylococcus aureus = experiment: Inhibitors of Bacterial Quorum Sensing Structure Activity Relationship (SAR) Analysis: Dose Response Assay. [Related pubchem assays: 700, 527 ]; format: functional, organism-based
[26] = biological target: Luciferin 4-monooxygenase (Photinus pyralis, UniProt P08659); experiment: Counter Screen for Luciferase-based Assay Positives. [Related pubchem assays: 620, 618, 411 ]
HT-1080 = experiment: HT1080 cell viability loss – fluorescence readout (AID 620); format: functional, cell-based; settings: Homo sapiens
[27] = biological target: T8, Oxysterols receptor LXR-beta (Homo sapiens, UniProt P55055); format: functional, cell-based;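 note: Cell-based luminescence dose-response assay of agonist activity at LXR, run as a confirmatory counterscreen to a daf-12 agonist screen; HEK293 cells with Gal4-LXR fusion and GAL4-driven luciferase reporter; agonist potency from rising luciferase signal of a Gal4-LXR reporter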
T8 sequence (P55055 whole entry): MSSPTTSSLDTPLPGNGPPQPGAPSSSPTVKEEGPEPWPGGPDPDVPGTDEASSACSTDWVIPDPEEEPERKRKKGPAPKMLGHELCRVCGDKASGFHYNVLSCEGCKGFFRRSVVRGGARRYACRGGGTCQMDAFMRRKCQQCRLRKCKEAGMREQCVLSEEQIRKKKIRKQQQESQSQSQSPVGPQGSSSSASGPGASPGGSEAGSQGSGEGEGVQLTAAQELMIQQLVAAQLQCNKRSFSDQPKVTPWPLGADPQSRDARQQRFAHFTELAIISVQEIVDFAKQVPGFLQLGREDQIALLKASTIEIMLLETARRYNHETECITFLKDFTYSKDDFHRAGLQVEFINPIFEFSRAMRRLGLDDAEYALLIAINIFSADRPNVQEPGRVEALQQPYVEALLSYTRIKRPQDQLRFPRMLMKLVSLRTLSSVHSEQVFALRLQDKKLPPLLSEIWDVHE

[28] = biological target: Polyadenylate-binding protein 1 (Homo sapiens, UniProt P11940); experiment: blockers of PABP interaction with poly(A) – biochemical, fluorescence polarization, […] (AID 2014)
[29] = biological target: Eukaryotic translation initiation factor 4H (Homo sapiens, UniProt Q15056); experiment: eIF4H binding inhibition – biochemical, uHTS, fluorescence polarization, translation initiation inhibitor project, primary screen (AID 2012)

T6 sequence (P41145 whole entry): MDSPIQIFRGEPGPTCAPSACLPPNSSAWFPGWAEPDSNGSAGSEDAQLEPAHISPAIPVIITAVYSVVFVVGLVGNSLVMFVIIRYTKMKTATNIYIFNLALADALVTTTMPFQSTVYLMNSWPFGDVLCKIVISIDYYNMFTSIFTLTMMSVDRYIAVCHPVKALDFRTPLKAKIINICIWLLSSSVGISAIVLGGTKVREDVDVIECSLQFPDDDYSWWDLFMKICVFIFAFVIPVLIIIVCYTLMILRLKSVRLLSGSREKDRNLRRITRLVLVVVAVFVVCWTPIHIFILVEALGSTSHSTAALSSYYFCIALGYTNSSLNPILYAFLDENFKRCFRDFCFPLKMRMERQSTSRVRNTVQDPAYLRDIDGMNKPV
T5 sequence (P35372 whole entry): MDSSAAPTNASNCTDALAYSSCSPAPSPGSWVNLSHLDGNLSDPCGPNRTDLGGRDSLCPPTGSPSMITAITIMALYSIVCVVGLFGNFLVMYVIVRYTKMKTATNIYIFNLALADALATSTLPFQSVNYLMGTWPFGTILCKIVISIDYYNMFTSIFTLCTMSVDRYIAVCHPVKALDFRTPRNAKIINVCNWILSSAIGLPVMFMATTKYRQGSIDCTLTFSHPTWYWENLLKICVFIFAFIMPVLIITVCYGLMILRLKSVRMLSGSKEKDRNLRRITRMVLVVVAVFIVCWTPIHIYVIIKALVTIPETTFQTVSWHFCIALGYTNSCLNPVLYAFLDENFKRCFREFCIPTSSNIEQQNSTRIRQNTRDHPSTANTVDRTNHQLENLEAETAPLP
T4 sequence (P41143 whole entry): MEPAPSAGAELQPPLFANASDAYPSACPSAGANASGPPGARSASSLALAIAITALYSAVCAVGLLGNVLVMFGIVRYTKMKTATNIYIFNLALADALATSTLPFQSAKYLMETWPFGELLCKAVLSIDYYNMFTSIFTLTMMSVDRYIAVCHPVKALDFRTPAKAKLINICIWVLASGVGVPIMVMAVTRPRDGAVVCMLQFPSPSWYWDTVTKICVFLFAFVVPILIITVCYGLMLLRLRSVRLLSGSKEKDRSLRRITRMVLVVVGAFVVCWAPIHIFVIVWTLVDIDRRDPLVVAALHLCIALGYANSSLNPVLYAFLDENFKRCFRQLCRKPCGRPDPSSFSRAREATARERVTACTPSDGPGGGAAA
Sequence of Neuropeptide Y receptor type 1 (P25929 whole entry): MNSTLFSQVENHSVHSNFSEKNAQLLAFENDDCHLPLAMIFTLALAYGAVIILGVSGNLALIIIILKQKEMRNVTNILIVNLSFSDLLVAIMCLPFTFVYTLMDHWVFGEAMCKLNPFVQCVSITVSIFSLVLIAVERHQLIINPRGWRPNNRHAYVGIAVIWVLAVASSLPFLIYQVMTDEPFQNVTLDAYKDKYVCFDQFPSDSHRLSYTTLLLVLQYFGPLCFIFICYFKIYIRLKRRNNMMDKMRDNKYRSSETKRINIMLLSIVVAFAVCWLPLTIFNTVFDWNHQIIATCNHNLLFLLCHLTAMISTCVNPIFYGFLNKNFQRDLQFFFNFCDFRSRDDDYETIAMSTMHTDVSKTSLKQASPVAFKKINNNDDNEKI
Sequence of DNA (cytosine-5)-methyltransferase 1 (P26358 whole entry): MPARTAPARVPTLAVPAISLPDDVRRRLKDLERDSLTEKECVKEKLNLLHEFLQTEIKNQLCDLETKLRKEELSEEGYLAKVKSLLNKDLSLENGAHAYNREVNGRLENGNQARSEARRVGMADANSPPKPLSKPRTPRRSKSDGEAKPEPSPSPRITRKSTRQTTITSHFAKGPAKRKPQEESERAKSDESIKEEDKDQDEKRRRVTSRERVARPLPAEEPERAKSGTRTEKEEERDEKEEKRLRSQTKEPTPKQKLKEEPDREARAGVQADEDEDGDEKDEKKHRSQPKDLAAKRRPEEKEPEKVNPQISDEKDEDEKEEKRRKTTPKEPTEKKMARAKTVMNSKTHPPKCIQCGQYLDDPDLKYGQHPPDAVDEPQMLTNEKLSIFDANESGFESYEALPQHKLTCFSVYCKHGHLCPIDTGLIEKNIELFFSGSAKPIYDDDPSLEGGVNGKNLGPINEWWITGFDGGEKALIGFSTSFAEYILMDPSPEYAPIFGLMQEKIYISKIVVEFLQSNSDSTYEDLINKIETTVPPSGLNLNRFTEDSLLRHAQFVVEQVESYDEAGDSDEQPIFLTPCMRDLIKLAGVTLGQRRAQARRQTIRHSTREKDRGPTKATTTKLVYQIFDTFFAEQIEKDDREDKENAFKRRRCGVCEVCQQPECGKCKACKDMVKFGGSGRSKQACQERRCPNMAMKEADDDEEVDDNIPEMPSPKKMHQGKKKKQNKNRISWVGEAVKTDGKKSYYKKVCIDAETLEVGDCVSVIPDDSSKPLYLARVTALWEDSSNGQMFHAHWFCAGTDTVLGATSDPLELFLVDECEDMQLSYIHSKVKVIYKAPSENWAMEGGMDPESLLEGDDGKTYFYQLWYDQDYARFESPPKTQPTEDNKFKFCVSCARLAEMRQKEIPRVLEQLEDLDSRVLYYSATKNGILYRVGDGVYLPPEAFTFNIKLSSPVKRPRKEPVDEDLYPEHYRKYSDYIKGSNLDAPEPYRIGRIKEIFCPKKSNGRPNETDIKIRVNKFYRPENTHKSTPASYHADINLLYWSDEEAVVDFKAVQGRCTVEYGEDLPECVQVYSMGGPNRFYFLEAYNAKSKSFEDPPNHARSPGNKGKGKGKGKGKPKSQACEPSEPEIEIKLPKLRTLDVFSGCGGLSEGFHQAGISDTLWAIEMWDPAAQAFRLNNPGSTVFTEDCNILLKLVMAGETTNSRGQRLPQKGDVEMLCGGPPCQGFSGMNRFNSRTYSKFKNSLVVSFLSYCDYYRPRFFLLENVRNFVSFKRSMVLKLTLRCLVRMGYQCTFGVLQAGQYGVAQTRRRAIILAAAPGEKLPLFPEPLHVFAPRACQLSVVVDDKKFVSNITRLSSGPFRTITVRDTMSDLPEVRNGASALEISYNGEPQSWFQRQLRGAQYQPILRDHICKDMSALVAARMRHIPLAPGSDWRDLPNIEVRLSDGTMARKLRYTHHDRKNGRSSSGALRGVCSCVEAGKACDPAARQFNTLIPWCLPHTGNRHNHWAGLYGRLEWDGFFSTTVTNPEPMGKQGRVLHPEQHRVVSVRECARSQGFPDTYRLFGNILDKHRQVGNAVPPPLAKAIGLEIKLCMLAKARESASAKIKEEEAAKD
Sequence of Luciferin 4-monooxygenase (P08659 whole entry): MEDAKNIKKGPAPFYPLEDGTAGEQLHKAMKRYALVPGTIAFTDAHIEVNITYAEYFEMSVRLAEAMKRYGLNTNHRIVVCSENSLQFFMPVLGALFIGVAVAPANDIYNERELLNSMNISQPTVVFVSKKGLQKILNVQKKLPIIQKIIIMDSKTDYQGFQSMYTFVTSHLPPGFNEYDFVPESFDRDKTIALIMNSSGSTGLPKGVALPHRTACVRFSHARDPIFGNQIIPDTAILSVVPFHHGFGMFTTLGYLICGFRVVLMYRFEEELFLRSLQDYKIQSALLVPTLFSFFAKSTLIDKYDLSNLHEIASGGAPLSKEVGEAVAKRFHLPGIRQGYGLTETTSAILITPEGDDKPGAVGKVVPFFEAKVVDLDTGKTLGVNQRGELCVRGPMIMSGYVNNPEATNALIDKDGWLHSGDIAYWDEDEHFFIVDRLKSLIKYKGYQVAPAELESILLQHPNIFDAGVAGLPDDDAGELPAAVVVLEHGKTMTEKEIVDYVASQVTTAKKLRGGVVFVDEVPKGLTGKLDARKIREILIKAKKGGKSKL
Sequence of Chaperone protein dnaK (C3TRK2 whole entry): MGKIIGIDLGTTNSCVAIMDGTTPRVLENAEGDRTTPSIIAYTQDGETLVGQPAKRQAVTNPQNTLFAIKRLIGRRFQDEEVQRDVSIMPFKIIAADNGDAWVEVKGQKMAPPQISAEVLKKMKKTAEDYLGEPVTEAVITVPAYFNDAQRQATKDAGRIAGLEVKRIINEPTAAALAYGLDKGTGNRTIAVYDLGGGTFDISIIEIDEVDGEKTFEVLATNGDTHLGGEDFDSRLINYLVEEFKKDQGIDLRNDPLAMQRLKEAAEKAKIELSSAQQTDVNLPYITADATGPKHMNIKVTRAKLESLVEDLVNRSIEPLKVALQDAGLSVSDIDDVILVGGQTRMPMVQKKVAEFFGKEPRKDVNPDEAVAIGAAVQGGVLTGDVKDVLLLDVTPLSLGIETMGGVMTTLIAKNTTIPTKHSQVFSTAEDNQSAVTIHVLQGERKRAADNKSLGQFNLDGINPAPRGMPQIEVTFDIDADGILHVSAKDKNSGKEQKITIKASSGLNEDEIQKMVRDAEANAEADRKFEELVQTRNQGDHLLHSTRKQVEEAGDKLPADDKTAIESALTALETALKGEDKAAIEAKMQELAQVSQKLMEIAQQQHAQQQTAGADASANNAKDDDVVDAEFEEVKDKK
Sequence of Melanin-concentrating hormone receptor 1 (Q99705 whole entry): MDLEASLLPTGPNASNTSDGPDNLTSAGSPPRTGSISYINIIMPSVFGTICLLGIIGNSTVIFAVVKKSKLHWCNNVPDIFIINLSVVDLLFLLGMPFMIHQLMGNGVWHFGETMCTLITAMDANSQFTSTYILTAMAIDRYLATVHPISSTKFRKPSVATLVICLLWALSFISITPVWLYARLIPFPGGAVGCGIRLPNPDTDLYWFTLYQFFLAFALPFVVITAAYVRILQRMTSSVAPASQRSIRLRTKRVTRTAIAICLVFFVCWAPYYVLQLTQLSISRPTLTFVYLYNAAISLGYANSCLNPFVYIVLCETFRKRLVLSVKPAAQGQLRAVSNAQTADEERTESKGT

SMILES: COc1ccc(C(=O)/C=C/c2ccc(-c3ccccc3)cc2)cc1CSCC(=O)O
- IC50 [1]: 9.89 µM (active)
- IC50 [2]: 9.8 µM (active)
- AC50 [3]: 9.3 µM (active)
- EC50 (Streptokinase A): 8.81 µM (active)
- EC50 [4]: > 300 µM (not active)
- CC50 (Vero [5]): 29.5 µM (active)
- EC50 (Streptococcus): > 150 µM (not active)
- EC50 [6]: > 300 µM (not active)
- IC50 (Genome polyprotein): 37.7 µM (active)
- CC50 (Vero [7]): > 25 µM (active)
- EC50 [8]: 4.28 µM (active)
- IC50 (Vero [9]): > 25 µM (active)

SMILES: CCOC(=O)OCC1C=C[C@H](c2cc(-c3ccccc3)ccc2O)C(c2ccc(C(C)=O)cc2)O1 (stereo not given in full)
- AC50 (Cytochrome P450 2D6): 6.31 µM (inconclusive)

SMILES: COC(=O)c1cn(C(=O)c2cccs2)c2ccccc12
- EC50 [10]: > 50 µM (not active)

SMILES: CCc1ccc(Oc2c(Cl)cnn(-c3ccc(C)cc3)c2=O)cc1
- IC50 [11]: 5 µM (active)

SMILES: Cc1cccc(-n2ccnc2CN2CCC(CO)(CC3CCCCO3)CC2)c1 (stereo not given)
- IC50 [12]: > 32 µM (inactive)
- IC50 (Mu-type opioid receptor [13]): > 32 µM (inactive)
- EC50 [14]: > 10 µM (inactive)
- IC50 [15]: > 32 µM (inactive)
- EC50 (Mu-type opioid receptor [16]): > 32 µM (inactive)
- EC50 [17]: 5.82 µM (active)
- EC50 [18]: > 32 µM (inactive)

SMILES: O=C(Nc1sc2c(c1-c1nc3ccccc3[nH]1)CCCC2)C1CC1
- EC50 (HEK293): > 35.4 µM (not active)
- EC50 [19]: 17.3 µM (not active)
- EC50 [20]: > 35.4 µM (not active)

SMILES: O=C(NCc1ccccc1O)c1cccs1
- Kd (Chaperone protein dnaK): 2.3 µM (active)

SMILES: CC(C)n1cnc2c(Nc3cccc(Cl)c3)nc(N(CCO)CCCO)nc21
- IC50 [21]: > 20 µM (inactive)
- EC50 [22]: 10.8 µM (active)
- EC50 [23]: 10.7 µM (active)
- AC50 [24]: 0.463 µM (active)
- EC50 [25]: 9.32 µM (active)

SMILES: CCCCc1oc2ccccc2c1C(=O)c1ccc(O)cc1
- IC50 (Staphylococcus aureus): 0.544 µM (active)

SMILES: Cc1ccc(-c2nc3n(n2)Cc2ccccc2-3)cc1
- EC50 [23]: 0.364 µM (active)
- EC50 (cells): > 67.5 µM (inactive)
- EC50 [26]: 2.87 µM (active)
- EC50 (HT-1080): > 50 µM (not active)
- EC50 [27]: > 67.5 µM (inactive)
- EC50 [25]: 6.59 µM (active)

SMILES: O=C(O)c1ccc(N/N=C/c2cc3c(cc2[N+](=O)[O-])OCO3)cc1
- IC50 [28]: 48.8 µM (active)
- IC50 [29]: 21.8 µM (active)
